Reference: patent US20260125371A1, “METHOD FOR INHIBITING CLOSTRIDIOIDES DIFFICILE SPORE GERMINATION” (UNIVERSITY OF NOTRE DAME DU LAC, priority 2022, published 2026)
In brackets after ≈: the same amount, converted by molar mass. Where two headings read alike, the source gives them in different places.

What was measured:
C. difficile ATCC 43255 = assay: Determination of minimal-inhibitory concentrations (microdilution), C. difficile ATCC 43255; assay type: cell-based, Clostridioides difficile; details: for MIC C. difficile: Table 1; for MIC: Clostridioides difficile; for ATCC43255 MIC: C. difficile ATCC43255
S. aureus = assay: MIC against S. aureus strains; assay type: cell-based; details: S. aureus ATCC 29213, 24 h; for MIC: Staphylococcus aureus, ATCC29213, 24 h, read-out: MIC (μg/mL) 24 h
THP-1 cells = assay: Lactate dehydrogenase (LDH) cytotoxicity assay; assay type: cell-based, human; details: for IC50: Homo sapiens, read-out: LDH (IC50)
[1] = tested on: C. difficile strain ATCC43255 spores; assay: Spore germination inhibition assay; assay type: cell-based, Clostridioides difficile; details: compound 45 μM, germinant 6 mM taurocholate and 12 mM glycine, OD600 over 60 min, duplicate; for inhibition at 45 µM: Clostridioides difficile, 1 h
[2] = C. difficile ATCC 43255, 48-h incubation
[3] = ATCC43255, 24 h, C. difficile ATCC 43255, 24 h, read-out: MIC (μg/mL) 24 h
[4] = ATCC43255, Table 1, strain ATCC 43255, read-out: MIC C. difficile
[5] = ATCC43255, C. difficile ATCC43255, read-out: ATCC43255 MIC

For `Oc1ccc(-c2nc(-c3ccc(Oc4ccc(C(F)(F)F)cc4)cc3)no2)cc1` [Compound 9], the “MIC (μg/mL) 48 h” value (C. difficile ATCC 43255; [2]) was 2 µg/mL (≈ 5.02 µM), the “MIC (μg/mL) 24 h” value (C. difficile ATCC 43255; C. difficile ATCC 43255, 24 h) was 2 µg/mL (≈ 5.02 µM) and the “MIC C. difficile” value (C. difficile ATCC 43255; strain ATCC 43255) was 2 µg/mL (≈ 5.02 µM). For the same compound, the “MIC (μg/mL) 24 h” value (S. aureus) was 1 µg/mL (≈ 2.51 µM) and the “LDH (IC50)” value (THP-1 cells; THP-1 cells, 24 h) was 17 ± 1 µg/mL.
For `Oc1ccc(-c2nc(-c3ccc(Oc4ccc(C(F)(F)F)cc4)cc3)no2)cc1F` [Compound 10], the “MIC (μg/mL) 48 h” value (C. difficile ATCC 43255; [2]) was 4 µg/mL (≈ 9.61 µM), the “MIC (μg/mL) 24 h” value (C. difficile ATCC 43255; C. difficile ATCC 43255, 24 h) was 4 µg/mL (≈ 9.61 µM) and the “MIC C. difficile” value (C. difficile ATCC 43255; strain ATCC 43255) was 4 µg/mL (≈ 9.61 µM). The “MIC (μg/mL) 24 h” value (S. aureus) was 2 µg/mL (≈ 4.8 µM) and the “LDH (IC50)” value (THP-1 cells; THP-1 cells, 24 h) was 5.2 ± 0.02 µg/mL.
With `Oc1c(F)cc(-c2nc(-c3ccc(Oc4ccc(C(F)(F)F)cc4)cc3)no2)cc1F` [Compound 11] the “MIC (μg/mL) 48 h” value (C. difficile ATCC 43255; [2]) was 4 µg/mL (≈ 9.21 µM), the “MIC (μg/mL) 24 h” value (C. difficile ATCC 43255; C. difficile ATCC 43255, 24 h) was 4 µg/mL (≈ 9.21 µM) and the “MIC C. difficile” value (C. difficile ATCC 43255; strain ATCC 43255) was 4 µg/mL (≈ 9.21 µM). The “MIC (μg/mL) 24 h” value (S. aureus) was 2 µg/mL (≈ 4.6 µM) and the “LDH (IC50)” value (THP-1 cells; THP-1 cells, 24 h) was 18 ± 2 µg/mL.
In the case of `O=[N+]([O-])c1cc(-c2nc(-c3ccc(Oc4ccc(C(F)(F)F)cc4)cc3)no2)cnc1O` [Compound 16], the “MIC (μg/mL) 48 h” value (C. difficile ATCC 43255; [2]) is reported as 2 µg/mL (≈ 4.5 µM), the “MIC (μg/mL) 24 h” value (C. difficile ATCC 43255; C. difficile ATCC 43255, 24 h) is reported as 2 µg/mL (≈ 4.5 µM) and the “MIC C. difficile” value (C. difficile ATCC 43255; strain ATCC 43255) is reported as 2 µg/mL (≈ 4.5 µM). The “MIC (μg/mL) 24 h” value (S. aureus) was 8 µg/mL (≈ 18 µM) and the “LDH (IC50)” value (THP-1 cells; THP-1 cells, 24 h) was 37 ± 11 µg/mL.
For `Cl.NCc1ccc(-c2nc(-c3ccc(Oc4ccc(C(F)(F)F)cc4)cc3)no2)cc1` [Compound 17, (4-(3-(4-(4-(Trifluoromethyl)phenoxy)phenyl)-1,2,4-oxadiazol-5-yl)phenyl) methanamine hydrochloride salt], the MIC (C. difficile ATCC 43255; [3]) was 4 µg/mL, the MIC (C. difficile ATCC 43255; [4]) was 4 µg/mL and the MIC (S. aureus) was 2 to 4 µg/mL. For the same compound, the IC50 (THP-1 cells; THP-1 cells, 24 h) was 4.4 ± 0.7 µg/mL.
With `O=[N+]([O-])c1c[nH]nc1-c1nc(-c2ccc(Oc3ccc(C(F)(F)F)cc3)cc2)no1` [Compound 30] the “MIC (μg/mL) 48 h” value (C. difficile ATCC 43255; [2]) was 4 µg/mL (≈ 9.59 µM), the “MIC (μg/mL) 24 h” value (C. difficile ATCC 43255; C. difficile ATCC 43255, 24 h) was 4 µg/mL (≈ 9.59 µM) and the “MIC C. difficile” value (C. difficile ATCC 43255; strain ATCC 43255) was 4 µg/mL (≈ 9.59 µM). The “MIC (μg/mL) 24 h” value (S. aureus) was 2 µg/mL (≈ 4.79 µM) and the “LDH (IC50)” value (THP-1 cells; THP-1 cells, 24 h) was 21 ± 5 µg/mL.
Work on `Oc1ccc(-c2nc(-c3ccc(OC4CCCC=C4Br)cc3)no2)cc1` (stereo not shown) [Compound 99, 4-(3-(4-((2-Bromocyclohex-2-en-1-yl)oxy)phenyl)-1,2,4-oxadiazol-5-yl)phenol] yielded an MIC (C. difficile ATCC 43255; [3]) of 2 µg/mL (≈ 4.84 µM), an MIC (C. difficile ATCC 43255; ATCC43255, 48 h, C. difficile ATCC 43255, 48-h incubation, read-out: MIC (μg/mL) 48 h) of 2 µg/mL (≈ 4.84 µM) and an MIC (C. difficile ATCC 43255; [4]) of 2 µg/mL (≈ 4.84 µM). It also gave an MIC (S. aureus) of 4 µg/mL (≈ 9.68 µM) and an IC50 (THP-1 cells; THP-1, 24 h) of 8.4 ± 0.3 µg/mL (≈ 20.3 µM).
`O=[N+]([O-])c1c[nH]nc1-c1nc(-c2ccc(OC(F)(F)F)cc2)no1` [Compound 115, 5-(4-Nitro-1H-pyrazol-3-yl)-3-(4-(trifluoromethoxy)phenyl)-1,2,4-oxadiazole] showed an MIC (C. difficile ATCC 43255; [3]) of 2 µg/mL (≈ 5.86 µM), an MIC (C. difficile ATCC 43255; [4]) of 4 µg/mL (≈ 11.7 µM) and an IC50 (THP-1 cells; THP-1, 24 h) of 25 ± 4 µg/mL (≈ 73.3 µM).
Compound `O=[N+]([O-])c1c[nH]nc1-c1nc(-c2ccc3oc4ccccc4c3c2)no1` [Compound 118, 3-(Dibenzo[b,d]furan-2-yl)-5-(4-nitro-1H-pyrazol-3-yl)-1,2,4-oxadiazole] has an MIC (C. difficile ATCC 43255; [3]) of 4 µg/mL (≈ 11.5 µM), an MIC (C. difficile ATCC 43255; [4]) of 4 µg/mL (≈ 11.5 µM) and an MIC (S. aureus) of 2 µg/mL (≈ 5.76 µM). For the same compound, the IC50 (THP-1 cells; THP-1, 24 h) was 9.8 ± 3.3 µg/mL (≈ 28.2 µM).
`Oc1ccc(-c2noc(-c3ccc(OC4CCCC4)cc3)n2)cc1` [Compound 137, 5-(4-(Cyclopentyloxy)phenyl)-3-(4-hydroxyphenyl)-1,2,4-oxadiazole] showed an MIC (C. difficile ATCC 43255; [3]) of 4 µg/mL (≈ 12.4 µM), an MIC (C. difficile ATCC 43255; [4]) of 4 µg/mL (≈ 12.4 µM) and an IC50 (THP-1 cells; THP-1 cells, 24 h) of 8.5 ± 0.2 µg/mL (≈ 26.4 µM).
Compound `O=C1CC(c2nc(-c3ccc(Oc4ccc(C(F)(F)F)cc4)cc3)no2)CN1` (stereo not shown) [DR-03-138] has an MIC (C. difficile ATCC 43255; [5]) of over 128 µg/mL and an inhibition at 45 µM [1] of 30 ± 14%.
For `O=[N+]([O-])c1c[nH]nc1-c1nc(-c2ccc(Oc3ccc(C(F)(F)F)cc3)cc2)no1` [DR-04-089], the “ATCC43255 MIC” value (C. difficile ATCC 43255) was over 128 µg/mL and the “% Spore Germination Inhibition at 45 μM” value [1] was 20 ± 3%.
`NCc1ccc(-c2nc(-c3ccc(Oc4ccc(F)cc4)cc3)no2)cc1` [DR-05-250] gave an MIC (C. difficile ATCC 43255; [5]) of over 128 µg/mL and an inhibition at 45 µM [1] of 73 ± 5%.
With `NCCCCc1nc(-c2ccc(Oc3ccc(C(F)(F)F)cc3)cc2)no1` [DR-06-025] the MIC (C. difficile ATCC 43255; [5]) was over 128 µg/mL and the inhibition at 45 µM [1] was 44 ± 2%.
For `Oc1ccc(-c2nc(-c3ccc(Oc4ccc(I)cc4)cc3)no2)cc1` [MAB-01-250A], the “ATCC43255 MIC” value (C. difficile ATCC 43255) was over 128 µg/mL and the “% Spore Germination Inhibition at 45 μM” value [1] was 62 ± 2%.
`Nc1cc(Oc2ccccc2)cnc1-c1noc(-c2ccc(O)cc2)n1` [MAB-02-27A] was tested, and the MIC (C. difficile ATCC 43255; [5]) was over 128 µg/mL and the inhibition at 45 µM [1] was 17 ± 1%.
With `O=[N+]([O-])c1ccccc1Oc1ccc(-c2noc(-c3ccc(O)cc3)n2)nc1` [MAB-02-29A] the MIC (C. difficile ATCC 43255; [5]) was over 128 µg/mL and the inhibition at 45 µM [1] was 26 ± 1%.
With `Oc1ccc(-c2nc(-c3ccc(Oc4ccccc4CBr)cc3)no2)cc1` [MAB-02-59A] the MIC (C. difficile ATCC 43255; [5]) was over 128 µg/mL and the inhibition at 45 µM [1] was 30 ± 3%.
For `NCc1ccc(-c2nc(-c3ccc(OC4CCCC4)cc3)no2)cc1` [YQ-4-81], the MIC (C. difficile ATCC 43255; [5]) was 4 µg/mL (≈ 11.9 µM) and the inhibition at 45 µM [1] was 41 ± 1%.
In the case of `NCc1ccc(-c2nc(-c3ccc(Oc4ccc(F)c(F)c4)cn3)no2)cc1` [YQ-4-99], the MIC (C. difficile ATCC 43255; [5]) is reported as 8 µg/mL (≈ 21 µM) and the inhibition at 45 µM [1] is reported as 44 ± 3%.
For `NCc1ccc(-c2nc(-c3ccnc(Oc4ccc(C(F)(F)F)cc4)c3)no2)cc1` [YQ-4-104], the MIC (C. difficile ATCC 43255; [5]) was 8 µg/mL (≈ 19.4 µM) and the inhibition at 45 µM [1] was 74 ± 5%.
For `NCc1ccc(-c2nc(-c3ccc(Oc4ccc(C(F)(F)F)cc4)cn3)no2)cc1` [YQ-4-107], the inhibition at 45 µM [1] was 24 ± 3%.
`CC(C)Oc1ccc(-c2noc(-c3ccc(CN)cc3)n2)cc1C(F)(F)F` [YQ-4-155] gave an MIC (C. difficile ATCC 43255; [5]) of 16 µg/mL (≈ 42.4 µM) and an inhibition at 45 µM [1] of 33 ± 1%.
Compound `NCc1ccc(-c2noc(-c3ccnc(-c4ccc(C(F)(F)F)cc4)c3)n2)cc1` [YQ-4-161] has an MIC (C. difficile ATCC 43255; [5]) of over 128 µg/mL and an inhibition at 45 µM [1] of 55 ± 1%.
In the case of `NCc1ccc(-c2nc(-c3ccnc(-c4ccc(C(F)(F)F)cc4)c3)no2)cc1` [YQ-4-163], the MIC (C. difficile ATCC 43255; [5]) is reported as 16 µg/mL (≈ 40.4 µM) and the inhibition at 45 µM [1] is reported as 68 ± 5%.
With `NCc1ccc(-c2nc(-c3ccc(OC4CCCCC4)cc3)no2)cc1` [YQ-4-165] the MIC (C. difficile ATCC 43255; [5]) was 8 µg/mL (≈ 22.9 µM) and the inhibition at 45 µM [1] was 50 ± 2%.
`C#Cc1ccc(Oc2cnc(-c3noc(-c4ccc(CN)cc4)n3)cc2C2(C(F)(F)F)N=N2)cc1` [YQ-4-169] was tested, and the “ATCC43255 MIC” value (C. difficile ATCC 43255) was 8 µg/mL and the “% Spore Germination Inhibition at 45 μM” value [1] was 63 ± 3%.
In the case of `NCCc1ccc(-c2nc(-c3ccc(Oc4ccc(F)cc4)cn3)no2)cc1` [YQ-4-170], the MIC (C. difficile ATCC 43255; [5]) is reported as 8 µg/mL (≈ 21.3 µM) and the inhibition at 45 µM [1] is reported as 48 ± 2%.
